{"source": "patent US20230174649A1", "about": "“PHARMACEUTICAL COMPOSITIONS CONTAINING ANTI-CD47 ANTIBODIES” (I-MAB BIOPHARMA US LIMITED, priority 2020, published 2023)", "assay_type_in_all_cases": "cell-based, Human", "key": {"CD47": {"tested_on": "CD47", "assay": "FACS analysis of expression level of CD47 on tumor cell surface", "conditions": "Toledo cells; for Mean Fluorescence Intensity (MFI) CD47: 12 hours", "method": "(§1) For FACS analysis, on the day of analysis (day 1), Toledo cells were seeded into 96 well plate and cultured at a density of 0.2×10^6 cells/well. Then the cells were treated with the selected small molecule therapeutic agents for 12 hours.\n(§2) On day 2, cells were harvested, washed twice and then re-suspended in 100 uL FACS buffer subject to FACS analysis. For detection of the expression of calreticulin and CD47, cells were incubated with anti-calreticulin antibody and commercially available anti-CD47 antibody (BD Biosciences, Catalog number: 561249) in dark at 4° C. for 30 mins.\n(§3) Then, the cells were subject to FACS analysis. Data was acquired and analyzed."}, "Calreticulin": {"tested_on": "Calreticulin", "assay": "FACS analysis of expression level of calreticulin on tumor cell surface", "conditions": "Toledo cells; for Mean Fluorescence Intensity (MFI) Calreticulin: 12 hours", "method": "as §1, §2, §3"}, "macrophages": {"tested_on": "macrophages", "assay": "Macrophage Viability Assay (CellTiter-Glo)", "conditions": "for Macrophage viability (CellTiter-Glo Luminescent Cell Viability Assay): 16 hours, three replicate lines", "method": "Then, the monocytes isolated by MACS were subsequently cultured in fresh complete medium supplemented with recombinant human granulocyte-macrophage colony-stimulating factor GM-CSF (50 ng/ml) and human recombinant IL-4 (35 ng/ml) to activate differentiated macrophages. After 6 days of culture (on day 7), cells were harvested, pooled together and counted for next use.\nThe cells from Example 2 were plated into a 96-well flat bottom plate at a density of 0.05×10^6 cells/well. After 2 hours of incubation, the macrophages were well attached to the plate. Then selected small molecule therapeutic agents were added to the well and cocultured for 16 hours. On day 8, macrophage viability was assessed by CellTiter-Glo® Luminescent Cell Viability Assay, according to the manufacture's instruction."}, "Toledo Cells": {"tested_on": "Toledo Cells", "assay": "FACS-based phagocytosis assay, macrophages cocultured with Toledo cells", "method": "FACS-based phagocytosis assays were performed to evaluate the phagocytic abilities of macrophages.\nToledo Cells (a tumor cell line, as a target) were labelled with CellTrace™ Far Red and plated into 96-well plate at a density of 0.15×10^6 cells/well for 12 hours. The Macrophages were prepared as discussed above and then labelled with CellTrace Violet. Next, the macrophages were added into the plate as an effector at an effector:target (Toledo) ratio of 1:3, giving a final density of macrophages at 0.05×10^6 cells/well. Macrophages and tumor cells were cocultured for 2-6 h at 37° C. in the presence of the indicated treatments (small molecule therapeutic agents, CD47 antibody, CD20 antibody or combinations). The incubation time depending on the phagocytosis rate, expecting phagocytosis of 5-20% cells.\nThen, cells were acquired and data were analyzed."}}, "note": "Values joined by “and” are separate entries in the source; they are usually repeats but may differ in a detail not shown here. Equal entries are not always repeated.", "data": [{"smiles": "COc1c(OCCCN2CCOCC2)ccc2c1N=C(NC(=O)c1cnc(N)nc1)N1CCN=C21", "note": "[Copanlisib]", "values": [{"measurement": "effect on CD47 expression level", "setting": "CD47", "value": "only slightly inhibited"}, {"measurement": "Mean Fluorescence Intensity (MFI) CD47", "setting": "CD47; 0.008 uM", "value": 8024}, {"measurement": "Mean Fluorescence Intensity (MFI) CD47", "setting": "CD47; 0.04 uM", "value": 8243}, {"measurement": "Mean Fluorescence Intensity (MFI) CD47", "setting": "CD47; 0.2 uM", "value": 7844}, {"measurement": "Mean Fluorescence Intensity (MFI) CD47", "setting": "CD47; 1 uM", "value": 7097}, {"measurement": "Mean Fluorescence Intensity (MFI) CD47", "setting": "CD47; 5 uM", "value": 6803}, {"measurement": "effect on expression level of Calreticulin", "setting": "Calreticulin", "value": "only slightly increased"}, {"measurement": "Mean Fluorescence Intensity (MFI) Calreticulin", "setting": "Calreticulin; 0.008 uM", "value": 69.8}, {"measurement": "Mean Fluorescence Intensity (MFI) Calreticulin", "setting": "Calreticulin; 0.04 uM", "value": 77}, {"measurement": "Mean Fluorescence Intensity (MFI) Calreticulin", "setting": "Calreticulin; 0.2 uM", "value": 79.4}, {"measurement": "Mean Fluorescence Intensity (MFI) Calreticulin", "setting": "Calreticulin; 1 uM", "value": 106}, {"measurement": "Mean Fluorescence Intensity (MFI) Calreticulin", "setting": "Calreticulin; 5 uM", "value": 142}, {"measurement": "Macrophage viability (CellTiter-Glo Luminescent Cell Viability Assay)", "setting": "macrophages; Cpd 0.002 uM", "value": "5856 and 5928 and 6000"}, {"measurement": "Macrophage viability (CellTiter-Glo Luminescent Cell Viability Assay)", "setting": "macrophages; Cpd 0.008 uM", "value": "5272 and 4772 and 5388"}, {"measurement": "Macrophage viability (CellTiter-Glo Luminescent Cell Viability Assay)", "setting": "macrophages; Cpd 0.04 uM", "value": "4856 and 5120 and 4872"}, {"measurement": "Macrophage viability (CellTiter-Glo Luminescent Cell Viability Assay)", "setting": "macrophages; Cpd 0.2 uM", "value": "4572 (2×) and 4928"}, {"measurement": "Macrophage viability (CellTiter-Glo Luminescent Cell Viability Assay)", "setting": "macrophages; Cpd 1 uM", "value": "4156 and 4492 and 4368"}, {"measurement": "Macrophage viability (CellTiter-Glo Luminescent Cell Viability Assay)", "setting": "macrophages; Cpd 5 uM", "value": "3780 and 4352 and 4196"}, {"measurement": "Macrophage viability (CellTiter-Glo Luminescent Cell Viability Assay)", "setting": "macrophages; Cpd 25 uM", "value": "4108 and 4176 and 4248"}, {"measurement": "Macrophage viability (CellTiter-Glo Luminescent Cell Viability Assay)", "setting": "macrophages; Cpd 50 uM", "value": "2748 and 3032 and 3028"}, {"measurement": "toxicity to macrophages", "setting": "macrophages; dose of 0.1-50 μM", "value": "obvious toxicity"}]}, {"smiles": "Cn1c(CCCC(=O)O)nc2cc(N(CCCl)CCCl)ccc21", "note": "[Bendamustine]", "values": [{"measurement": "Mean Fluorescence Intensity (MFI) CD47", "setting": "CD47; 0.008 uM", "value": 9132}, {"measurement": "Mean Fluorescence Intensity (MFI) CD47", "setting": "CD47; 0.04 uM", "value": 8684}, {"measurement": "Mean Fluorescence Intensity (MFI) CD47", "setting": "CD47; 0.2 uM", "value": 8687}, {"measurement": "Mean Fluorescence Intensity (MFI) CD47", "setting": "CD47; 1 uM", "value": 8319}, {"measurement": "Mean Fluorescence Intensity (MFI) CD47", "setting": "CD47; 5 uM", "value": 9192}, {"measurement": "Mean Fluorescence Intensity (MFI) Calreticulin", "setting": "Calreticulin; 0.008 uM", "value": 68.6}, {"measurement": "Mean Fluorescence Intensity (MFI) Calreticulin", "setting": "Calreticulin; 0.04 uM", "value": 70.1}, {"measurement": "Mean Fluorescence Intensity (MFI) Calreticulin", "setting": "Calreticulin; 0.2 uM", "value": 70.2}, {"measurement": "Mean Fluorescence Intensity (MFI) Calreticulin", "setting": "Calreticulin; 1 uM", "value": 76.3}, {"measurement": "Mean Fluorescence Intensity (MFI) Calreticulin", "setting": "Calreticulin; 5 uM", "value": 86.2}, {"measurement": "macrophage phagocytosis (untreated = 1.00)", "setting": "Toledo Cells; Cpd 0.0016 uM, T4J = 0, R = 0", "value": 1.06}, {"measurement": "macrophage phagocytosis (untreated = 1.00)", "setting": "Toledo Cells; Cpd 0.0016 uM, T4J = 0, R = 0.01 ug/ml", "value": 1.58}, {"measurement": "macrophage phagocytosis (untreated = 1.00)", "setting": "Toledo Cells; Cpd 0.0016 uM, T4J = 0.1 ug/ml, R = 0", "value": 2.53}, {"measurement": "macrophage phagocytosis (untreated = 1.00)", "setting": "Toledo Cells; Cpd 0.0016 uM, T4J = 0.1 ug/ml, R = 0.01 ug/ml", "value": 3.29}, {"measurement": "macrophage phagocytosis (untreated = 1.00)", "setting": "Toledo Cells; Cpd 0.008 uM, T4J = 0, R = 0", "value": 1.00}, {"measurement": "macrophage phagocytosis (untreated = 1.00)", "setting": "Toledo Cells; Cpd 0.008 uM, T4J = 0, R = 0.01 ug/ml", "value": 1.52}, {"measurement": "macrophage phagocytosis (untreated = 1.00)", "setting": "Toledo Cells; Cpd 0.008 uM, T4J = 0.1 ug/ml, R = 0", "value": 2.67}, {"measurement": "macrophage phagocytosis (untreated = 1.00)", "setting": "Toledo Cells; Cpd 0.008 uM, T4J = 0.1 ug/ml, R = 0.01 ug/ml", "value": 3.26}, {"measurement": "macrophage phagocytosis (untreated = 1.00)", "setting": "Toledo Cells; Cpd 0.04 uM, T4J = 0, R = 0", "value": 0.98}, {"measurement": "macrophage phagocytosis (untreated = 1.00)", "setting": "Toledo Cells; Cpd 0.04 uM, T4J = 0, R = 0.01 ug/ml", "value": 1.53}, {"measurement": "macrophage phagocytosis (untreated = 1.00)", "setting": "Toledo Cells; Cpd 0.04 uM, T4J = 0.1 ug/ml, R = 0", "value": 2.57}, {"measurement": "macrophage phagocytosis (untreated = 1.00)", "setting": "Toledo Cells; Cpd 0.04 uM, T4J = 0.1 ug/ml, R = 0.01 ug/ml", "value": 3.19}, {"measurement": "macrophage phagocytosis (untreated = 1.00)", "setting": "Toledo Cells; Cpd 0.2 uM, T4J = 0, R = 0", "value": 0.96}, {"measurement": "macrophage phagocytosis (untreated = 1.00)", "setting": "Toledo Cells; Cpd 0.2 uM, T4J = 0, R = 0.01 ug/ml", "value": 1.41}, {"measurement": "macrophage phagocytosis (untreated = 1.00)", "setting": "Toledo Cells; Cpd 0.2 uM, T4J = 0.1 ug/ml, R = 0", "value": 2.51}, {"measurement": "macrophage phagocytosis (untreated = 1.00)", "setting": "Toledo Cells; Cpd 0.2 uM, T4J = 0.1 ug/ml, R = 0.01 ug/ml", "value": 3.10}, {"measurement": "macrophage phagocytosis (untreated = 1.00)", "setting": "Toledo Cells; Cpd 1 uM, T4J = 0, R = 0", "value": 1.03}, {"measurement": "macrophage phagocytosis (untreated = 1.00)", "setting": "Toledo Cells; Cpd 1 uM, T4J = 0, R = 0.01 ug/ml", "value": 1.46}, {"measurement": "macrophage phagocytosis (untreated = 1.00)", "setting": "Toledo Cells; Cpd 1 uM, T4J = 0.1 ug/ml, R = 0", "value": 2.47}, {"measurement": "macrophage phagocytosis (untreated = 1.00)", "setting": "Toledo Cells; Cpd 1 uM, T4J = 0.1 ug/ml, R = 0.01 ug/ml", "value": 3.05}, {"measurement": "phagocytic ability of macrophages", "setting": "Toledo Cells; triple combination: T4J, Rituximab and the small molecule", "value": "does not show the synergistic effects"}, {"measurement": "Macrophage viability (CellTiter-Glo Luminescent Cell Viability Assay)", "setting": "macrophages; Cpd 0.002 uM", "value": "6292 and 6220 and 5908"}, {"measurement": "Macrophage viability (CellTiter-Glo Luminescent Cell Viability Assay)", "setting": "macrophages; Cpd 0.008 uM", "value": "6248 and 6356 and 6028"}, {"measurement": "Macrophage viability (CellTiter-Glo Luminescent Cell Viability Assay)", "setting": "macrophages; Cpd 0.04 uM", "value": "6248 and 6124 and 5788"}, {"measurement": "Macrophage viability (CellTiter-Glo Luminescent Cell Viability Assay)", "setting": "macrophages; Cpd 0.2 uM", "value": "6320 and 6664 and 5768"}, {"measurement": "Macrophage viability (CellTiter-Glo Luminescent Cell Viability Assay)", "setting": "macrophages; Cpd 1 uM", "value": "6220 and 6200 and 5436"}, {"measurement": "Macrophage viability (CellTiter-Glo Luminescent Cell Viability Assay)", "setting": "macrophages; Cpd 5 uM", "value": "6424 and 6308 and 5064"}, {"measurement": "Macrophage viability (CellTiter-Glo Luminescent Cell Viability Assay)", "setting": "macrophages; Cpd 25 uM", "value": "5884 and 5724 and 4340"}, {"measurement": "Macrophage viability (CellTiter-Glo Luminescent Cell Viability Assay)", "setting": "macrophages; Cpd 50 uM", "value": "5500 and 5736 and 4112"}, {"measurement": "toxicity to macrophages", "setting": "macrophages; dose as high as 50 μM", "value": "showed toxicity"}, {"measurement": "toxicity to macrophages", "setting": "macrophages; dose lower than 10 μM", "value": "little toxic"}]}]}
